US5118599A, “Yellow couplers for photographic elements and processes” (Eastman Kodak Company, priority 1991, dated 1992)

Tests used:
[1] = pKa Measurements; type: physicochemical; conditions: Table 1
Excerpt: The structural preference of the coupler for the axial conformation has important implications for […]. Due largely to the ability of the carbonyl oxygen to enolize and form H-bonds with the oxygen atoms of the dioxane ring, the pKa of the coupler is generally 1-2 units lower than pivaloyl acetanilide-based couplers. A lower pKa value means that the coupler ionizes more readily at pH 10, and results in higher coupling activity with oxidized color developer, as shown in Table 1.

[2] = Photographic single layer element: Dmax, Dmin, gamma and λmax after color development
Protocol: Single layer photographic elements were prepared by coating a cellulose acetate-butyrate film support with a photosensitive layer containing a silver bromide emulsion at 70.2 and 140.4 mg/ft^2 for 2 and 4 equivalent couplers, respectively, gelatin at 350 mg/ft^2 and an image coupler (0.20 mmol/ft^2) dispersed in half its weight of dibutyl phthalate. The photosensitive layer was overcoated with a layer containing gelatin at 250 mg/ft^2 and bis vinylsulfonyl methyl ether hardener at 2.0 weight percent based on total gel.
Samples of each element were exposed imagewise through a stepped density test object and processed at 100° F. employing the following color developing solution, then stopped with a low pH bath, bleached, fixed, washed and dried to produce stepped colored images.
Color Developer Solution (2')
4-Amino-3-methyl-N-ethyl 3.55 g
Water to make 1 liter, pH 10.0
Densitometry in the appropriate color maximum density (Dmin and Dmax) and gamma defined as the maximum slope between any two adjacent density points.

[3] = Table 4, color developer pH 10.0

pKa [1] | λmax ([2]; Table 3, D99, pH 10.0, KS-2) | λmax [2, 3] | Compound
7.24 | – | – | CCC(C)(C)c1ccc(OCCCC(=O)Nc2ccc(Cl)c(NC(=O)C(Oc3ccc(S(=O)(=O)c4ccc(OCc5ccccc5)cc4)cc3)C(=O)C3(C)COCOC3)c2)c(C(C)(C)CC)c1 [Coupler D-11]
10.01 | 447 | 447 nm | CCC(C)(C)c1ccc(OCCCC(=O)Nc2ccc(Cl)c(NC(=O)CC(=O)C(C)(C)C)c2)c(C(C)(C)CC)c1 [P-VI, reference compound]
– | – | 452 nm | CCCCCCCCCCCCCCCCS(=O)(=O)Nc1ccc(Cl)c(NC(=O)C(Oc2ccc(S(=O)(=O)c3ccc(OCc4ccccc4)cc3)cc2)C(=O)C(C)(C)C)c1 (stereo not drawn) [P-I, reference compound]
– | – | 446 nm | CCC(C)(C)c1ccc(OCCCC(=O)Nc2ccc(OC)c(NC(=O)CC(=O)C3(C)COCOC3)c2)c(C(C)(C)CC)c1 [Coupler D-3]
– | – | 445 nm | CCOC1C(=O)N(C(C(=O)Nc2cc(NC(=O)CCCOc3ccc(C(C)(C)CC)cc3C(C)(C)CC)ccc2OC)C(=O)C2(C)COC(C)(C)OC2)C(=O)N1Cc1ccccc1 [Coupler D-8]
8.76 | – | 450 nm | CCC(C)(C)c1ccc(OCCCC(=O)Nc2ccc(Cl)c(NC(=O)C(Oc3ccc(S(=O)(=O)c4ccc(OCc5ccccc5)cc4)cc3)C(=O)C(C)(C)C)c2)c(C(C)(C)CC)c1 (stereo not drawn) [P-III, reference compound]
– | – | 454 nm | CCC(C)(C)c1ccc(OCCCC(=O)Nc2cccc(NC(=O)C(Oc3ccc(S(=O)(=O)c4ccc(O)cc4)cc3)C(=O)C3(C)COCOC3)c2)c(C(C)(C)CC)c1 [Coupler D-12]
– | – | 448 nm | CCC(C)(C)c1ccc(OCCCC(=O)Nc2ccc(OC)c(NC(=O)C(Oc3ccc(S(=O)(=O)c4ccc(O)cc4)cc3)C(=O)C3(C)COCOC3)c2)c(C(C)(C)CC)c1 [Coupler D-14]
– | – | 445 nm | CCC(C)(C)c1ccc(OCCCC(=O)Nc2ccc(OC)c(NC(=O)C(Oc3ccc(S(=O)(=O)c4ccc(O)cc4)cc3)C(=O)C3(C)COC(C)(C)OC3)c2)c(C(C)(C)CC)c1 [Coupler D-7]
– | 452 | 452 nm | CCC(C)(C)c1ccc(OCCCC(=O)Nc2ccc(Cl)c(NC(=O)CC(=O)C3(C)COCOC3)c2)c(C(C)(C)CC)c1 [Coupler D-5]
7.55 | – | 453 nm | CCC(C)(C)c1ccc(OCCCC(=O)Nc2ccc(Cl)c(NC(=O)C(Oc3ccc(S(=O)(=O)c4ccc(O)cc4)cc3)C(=O)C3(C)COCOC3)c2)c(C(C)(C)CC)c1 [Coupler D-10]
8.42 | 454 | 454 nm | CCCCCCCCCCCCCCCCS(=O)(=O)Nc1ccc(Cl)c(NC(=O)CC(=O)C2(C)COCOC2)c1 [Coupler D-4]
– | 449 | 449 nm | CCCCCCCCCCCCCCCCS(=O)(=O)Nc1ccc(Cl)c(NC(=O)CC(=O)C(C)(C)C)c1 [P-V, reference compound]
8.51 | – | – | CCC(C)(C)c1ccc(OCCCC(=O)Nc2ccc(Cl)c(NC(=O)CC(=O)C3(C)COC(C)(C)OC3)c2)c(C(C)(C)CC)c1 [Coupler D-0]
– | 446 | – | CCCCCCCCCCCCCCCCS(=O)(=O)Nc1ccc(OC)c(NC(=O)CC(=O)C2(C)COC(C)(C)OC2)c1 [Coupler D-2]
– | – | 452 nm | CCC(C)(C)c1ccc(OCCCC(=O)Nc2ccc(C)c(NC(=O)C(Oc3ccc(S(=O)(=O)c4ccc(O)cc4)cc3)C(=O)C3(C)COCOC3)c2)c(C(C)(C)CC)c1 [Coupler D-13]
